Where two headings read alike, the source gives them in different places. Each block holds one molecule with its values, some of them ahead of it.
Experiments:
[1] = In-vivo bioavailability of oral nanoemulsion in rats, Example 11; conditions: rat
[2] = Artificial intestinal membrane permeability (PAMPA), Example 7; type: in vitro ADME; conditions: PBS pH 6.8, pemetrexed 200 μg/ml, room temperature, 5 hr
Excerpt: The intestinal membrane permeability of pemetrexed (PMX), the mixture of hydroxypropyl beta-cyclodextrin and pemetrexed (HP-beta CD/PMX), the mixture of hydroxypropyl beta-cyclodextrin and PMX/DCK ion-binding complex (HP-beta CD/PMX/DCK), the mixture of hydroxypropyl beta-cyclodextrin, PMX/DCK ion-binding complex and poloxamer (HP-beta CD/PMX/DCK/P188) prepared in Example 4, and the w/o/w nanoemulsion including the mixture of hydroxypropyl beta-cyclodextrin, PMX/DCK ion-binding complex and poloxamer (HP-beta CD/PMX/DCK/P188) prepared in Example 5 was evaluated using an artificial intestinal membrane (PAMPA; BD Biosciences, San Jose, Calif., USA).
Each sample was diluted with phosphate-buffered saline (PBS, pH 6.8) so that the concentration of pemetrexed was 200 μg/ml, and was then added in an amount of 200 μl to the donor compartment of each well of a PAMPA plate, each acceptor compartment thereof was added with 300 μl of phosphate-buffered saline (PBS, pH 6.8), and the donor compartment and the acceptor compartment were linked and then allowed to stand at room temperature for 5 hr, after which the sample was recovered from the donor compartment and the acceptor compartment of each well of the PAMPA plate and the concentration of the permeated drug was measured as follows. […]
The effective permeability (Pe) of each drug was calculated using the following equation. […]

[3] = rat, in vivo, iv, 5 mg/kg
Protocol: (§1) Separately, in order to evaluate oral bioavailability, a solution of pemetrexed in distilled water was injected in an amount of 200 μl into rats through the tail vein thereof. Blood samples (200 μl) were collected at scheduled times after individual drug administrations and immediately mixed with 50 μl of a sodium citrate (3.8%) solution. The collected blood samples were centrifuged at 2,500×g and 4° C. for 15 min, pemetrexed in plasma was extracted using a solid-phase extraction (SPE) cartridge, and the concentration of pemetrexed was measured through liquid chromatography/mass spectrometry (LC/MS).
(§2) Each value represents mean±standard deviation (n=4 in each group).

[4] = system: Caco-2 cell monolayer membrane; test: Intestinal cell membrane permeability, Caco-2 cell monolayer, Example 9; type: in vitro ADME; conditions: Caco-2 monolayer, apical to basolateral, pemetrexed 200 μg/ml in HBSS, 37° C., up to 5 hr
Protocol: Caco-2 cells were treated at 3×10^5 cells in each well of a 12-well Transwell (pore size: 0.4 μm, surface area: 1.12 cm^2; Corning, N.Y., USA). Dulbecco's modified Eagles medium (DMEM; Lonza, Basel, Switzerland) containing 10% fetal bovine serum (FBS; Gibco™, Thermo Fisher Scientific) and 1% penicillin/streptomycin (Gibco™) was replaced every 48 hr for 21 days to 29 days, and a Caco-2 cell membrane having a transepithelial electrical resistance (TEER) of 350 Ωcm^2 or more was used for in-vitro intestinal cell membrane permeability tests.
Specifically, the culture medium was removed, culture was performed at 37° C. for 20 min with 0.5 ml of a Hanks' balanced salt solution (HESS), HBSS was removed, and each sample was diluted with HBSS so that the concentration of pemetrexed was 200 μg/ml, after which each sample thus diluted was added in an amount of 0.5 ml to the apical compartment of the Transwell, and the basolateral compartment of the Transwell was added with 1.5 ml of HBSS, followed by culturing at 37° C. After sample treatment, 100 μl of the sample was collected from the basolateral compartment of each well at 0.5, 1, 2, 3, 4 and 5 hr and then filtered with a membrane filter, after which the concentrations of PMX and the PMX/DCK ion-binding complex that permeated the intestinal cell membrane were measured using the same HPLC system as in Example 7. […]

in vivo = conditions: rat
Protocol: as §1, §2

[5] = Artificial intestinal membrane permeability (PAMPA) of nanoemulsion with quercetin, Example 8; type: in vitro ADME; conditions: PBS pH 6.8, quercetin 400 μg/ml, room temperature, 5 hr, analyte quercetin
Protocol: The intestinal membrane permeability of pemetrexed (PMX), quercetin and the w/o/w secondary nanoemulsions including the mixture of hydroxypropyl beta-cyclodextrin, PMX/DCK ion-binding complex and poloxamer (HP-beta CD/PMX/DCK/P188) prepared in Example 5 and quercetin was evaluated using an artificial intestinal membrane (PAMPA; BD Biosciences, San Jose, Calif., USA).
Each sample was diluted with phosphate-buffered saline (PBS, pH 6.8) so that the concentration of pemetrexed was 200 μg/ml and the concentration of quercetin was 400 μg/ml, and was then added in an amount of 200 μl to the donor compartment of each well of a PAMPA plate, each acceptor compartment thereof was added with 300 μl of phosphate-buffered saline (PBS, pH 6.8), and the donor compartment and the acceptor compartment were linked and then allowed to stand at room temperature for 5 hr, after which the sample was recovered from the donor compartment and the acceptor compartment of each well of the PAMPA plate, and the concentration of the permeated drug was measured as follows.
The concentrations of PMX and PMX/DCK were analyzed by introducing 20 μl of the sample into an HPLC system with a C18 column (4.6×250 mm, 5 μm, 100 □) and allowing a mixture of purified water (pH 3.2, adjusted with phosphoric acid) and acetonitrile at 80:20 (v/v) as a mobile phase to flow at a flow rate of 1.0 ml/min. […]

Bioavailability (oral, compared to intravenous injection) [1]: 12.0% | AUCinf ([1]; iv, 10 mg/kg): 29,390 ± 4,844 ng · h/ml | AUClast ([1]; iv, 10 mg/kg): 31,340 ± 5,342 ng · h/ml | Cmax ([1]; iv, 10 mg/kg): 32,220 ± 13,900 ng/ml | T1/2 ([1]; iv, 10 mg/kg): 0.57 ± 0.07 h | bioavailability ([1]; iv, 10 mg/kg): 100% | AUCinf ([1]; po, 20 mg/kg): 14,300 ± 2,272 ng · h/ml | AUClast ([1]; po, 20 mg/kg): 7,546±938 ng · h/ml | Cmax ([1]; po, 20 mg/kg): 1,487±332 ng/ml | Tmax ([1]; po, 20 mg/kg): 2.75 ± 3.50 h | half-life ([1]; po, 20 mg/kg): 7.55 ± 0.94 h | Permeability (effective permeability Pe of pemetrexed) [2]: 3.73 ± 1.15 ×10^−6, cm/s | AUCinf [3]: 9,414.5 ± 4,223.6 ng · h/ml | AUClast [3]: 9,377.5 ± 4,169.4 ng · h/ml | Cmax [3]: 15,318 ± 6100.3 ng/ml | T1/2 [3]: 0.35 ± 0.08 h | Permeability (apparent permeation coefficient Papp) [4]: 0.50 ± 0.09 ×10^−6, cm/s | bioavailability (in vivo): 1.49% | bioavailability (in vivo; iv, 5 mg/kg): 100% | AUC(0-inf) (in vivo; po, 50 mg/kg): 2560 ng·h/mL | AUC(0-t) (in vivo; po, 50 mg/kg): 1390 ng·h/mL | Cmax (in vivo; po, 50 mg/kg): 452 ± 221 ng/mL | Tmax (in vivo; po, 50 mg/kg): 0.83 ± 0.58 h | half-life (in vivo; po, 50 mg/kg): 6.06 ± 1.83 h
Compound: Nc1nc2[nH]cc(CCc3ccc(C(=O)N[C@@H](CCC(=O)O)C(=O)O)cc3)c2c(=O)[nH]1 [PMX, Pemetrexed]

Permeability (effective permeability Pe of quercetin) [5]: 4.51 ± 5.10 ×10^−6, cm/s
Compound: O=c1c(O)c(-c2ccc(O)c(O)c2)oc2cc(O)cc(O)c12 [Quercetin, quercetin]
